Source: ChEMBL document CHEMBL1138218, “Structure-activity relationship studies of ethyl 2-amino-6-bromo-4-(1-cyano-2-ethoxy-2-oxoethyl)-4H-chromene-3-carboxylate (HA 14-1), an antagonist for antiapoptotic Bcl-2 proteins to overcome drug resistance in cancer” (J Med Chem, 2006)

Assays:
Jurkat = test: Growth inhibition of Jurkat cell; format: functional; details: Homo sapiens
[1] = molecular target: T1, Apoptosis regulator Bcl-2 (Homo sapiens, UniProt P10415); test: Growth inhibition of Jurkat cell overexpressing Bcl2; format: functional, cell-based
Bcl-2-like protein 1 [2] = molecular target: T2, Bcl-2-like protein 1 (Homo sapiens, UniProt Q07817); test: Growth inhibition of Jurkat cell overexpressing BclXL; format: functional, cell-based
[3] = Ratio of GI50 for Jurkat cells overexpressing Bcl2 or BclXL to normal Jurkat cells; format: functional, Homo sapiens
NCI-H460 = test: Growth inhibition of NCI-H460 cell; format: functional; details: Homo sapiens
Bcl-2-like protein 2 = molecular target: T3, Bcl-2-like protein 2 (Homo sapiens, UniProt Q92843); test: Binding affinity to Bclw by FP assay
T3 sequence (Q92843 whole entry): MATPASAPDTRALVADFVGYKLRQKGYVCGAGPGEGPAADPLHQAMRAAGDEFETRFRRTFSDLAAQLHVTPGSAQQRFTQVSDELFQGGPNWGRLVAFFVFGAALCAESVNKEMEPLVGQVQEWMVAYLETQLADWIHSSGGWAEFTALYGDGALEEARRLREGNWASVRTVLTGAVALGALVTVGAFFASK

Bcl-2-like protein 1 [4] = molecular target: T2, Bcl-2-like protein 1; test: Binding affinity to BclXL by FP assay
[5] = molecular target: T1, Apoptosis regulator Bcl-2; test: Binding affinity to Bcl2 by FP assay

T2 sequence (Q07817 whole entry): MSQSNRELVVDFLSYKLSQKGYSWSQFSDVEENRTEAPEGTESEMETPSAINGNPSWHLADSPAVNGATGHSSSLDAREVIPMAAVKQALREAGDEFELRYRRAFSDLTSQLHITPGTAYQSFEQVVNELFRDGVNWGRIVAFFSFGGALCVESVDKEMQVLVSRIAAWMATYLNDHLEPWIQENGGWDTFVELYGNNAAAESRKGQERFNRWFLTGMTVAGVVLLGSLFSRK
T1 sequence (P10415 whole entry): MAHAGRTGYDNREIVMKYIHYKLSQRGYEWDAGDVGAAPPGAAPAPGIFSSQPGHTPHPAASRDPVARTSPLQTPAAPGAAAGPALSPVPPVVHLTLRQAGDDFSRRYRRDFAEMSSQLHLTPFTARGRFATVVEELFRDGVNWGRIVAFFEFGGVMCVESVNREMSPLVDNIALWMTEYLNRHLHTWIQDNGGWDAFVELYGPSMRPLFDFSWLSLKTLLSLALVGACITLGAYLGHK

GI50 (Jurkat) | GI50 [1] | GI50 (Bcl-2-like protein 1 [2]) | GI50 (NCI-H460) | Ki (Bcl-2-like protein 2) | Ki (Bcl-2-like protein 1 [4]) | Ki [5] | SMILES | RatioGI50 [3]
29 µM | 37 µM | 41 µM | 102 µM | 199 µM | 191 µM | 309 µM | CCOC(=O)C1=C(N)Oc2ccc(C)cc2C1C(C#N)C(=O)OCC (configuration not stated) | <1.41
13 µM | 12 µM | 13 µM | 79.1 µM | 121 µM | 135 µM | 210 µM | CCOC(=O)C1=C(N)Oc2ccc(CC)cc2C1C(C#N)C(=O)OCC (configuration not stated) | <1
5.2 µM | 5.7 µM | 6.3 µM | 24.9 µM | 56.7 µM | 70.7 µM | 128 µM | CCCc1ccc2c(c1)C(C(C#N)C(=O)OCC)C(C(=O)OCC)=C(N)O2 (configuration not stated) | <1.21

Second part, the compound before the results:

SMILES | GI50 (Jurkat) | GI50 [1] | GI50 (Bcl-2-like protein 1 [2]) | GI50 (NCI-H460) | Ki (Bcl-2-like protein 2) | Ki (Bcl-2-like protein 1 [4]) | Ki [5] | RatioGI50 [3]
CCOC(=O)C1=C(N)Oc2ccc(-c3ccc(C(C)(C)C)cc3)cc2C1C(C#N)C(=O)OCC (configuration not stated) | 0.8 µM | 0.99 µM | 0.99 µM | 0.16 µM | 20.3 µM | 21.7 µM |  | <1.24
CCOC(=O)C1=C(N)Oc2ccc(-c3ccccc3)cc2C1C(C#N)C(=O)OCC (configuration not stated) | 3.9 µM | 4.2 µM | 4.1 µM | 15.9 µM | 41.2 µM | 52.9 µM | 112 µM | <1.07
CCOC(=O)C1=C(N)Oc2ccccc2C1C(C#N)C(=O)OCC (configuration not stated) | 66 µM | 94 µM | 99 µM | 157 µM | 697 µM | 570 µM | 531 µM | <1.5
CCOC(=O)C1=C(N)Oc2ccc(C3CCCC3)cc2C1C(C#N)C(=O)OCC (configuration not stated) | 3.5 µM | 3.8 µM | 3.9 µM | 11 µM | 30.8 µM | 36.5 µM | 128 µM | <1.1
CC(=O)O[C@H]1C(=O)[C@@]2(C)[C@H]([C@H](OC(=O)c3ccccc3)[C@]3(O)C[C@H](OC(=O)[C@H](O)[C@@H](NC(=O)c4ccccc4)c4ccccc4)C(C)=C1C3(C)C)[C@]1(OC(C)=O)CO[C@@H]1C[C@@H]2O [PACLITAXEL] | < 0.01 µM | > 10 µM | > 10 µM |  |  |  |  | >100
COc1cccc2c1C(=O)c1c(O)c3c(c(O)c1C2=O)C[C@@](O)(C(=O)CO)C[C@@H]3O[C@H]1C[C@H](N)[C@H](O)[C@H](C)O1 [DOXORUBICIN] | 0.21 µM | 26 µM | 24 µM |  |  |  |  | >100
Nc1nc2[nH]cnc2c(=S)[nH]1 [THIOGUANINE] | 13 µM | 147 µM | 183 µM |  |  |  |  | >11
